Data reported in ChEMBL document CHEMBL4330178 (ACS Med Chem Lett, 2019).

How the values were obtained:
[1] = target: von Hippel-Lindau disease tumor suppressor/Mitogen-activated protein kinase 14 (Homo sapiens, UniProt P40337+Q16539); assay: Protac activity at E3 ubiquitin ligase/p38alpha in human MDA-MB-231 cells assessed as p38alpha degradation after 4 hrs by ELISA; assay type: cell-based
[2] = target: von Hippel-Lindau disease tumor suppressor/Mitogen-activated protein kinase 14 (Homo sapiens) (UniProt Q16539+P40337); assay: Protac activity at E3 ubiquitin ligase/p38alpha in human MDA-MB-231 cells assessed as p38alpha degradation after 4 hrs by ELISA relative to control; assay type: cell-based
Chain of von Hippel-Lindau disease tumor suppressor/Mitogen-activated protein kinase 14 (Homo sapiens) (P40337 whole entry partner): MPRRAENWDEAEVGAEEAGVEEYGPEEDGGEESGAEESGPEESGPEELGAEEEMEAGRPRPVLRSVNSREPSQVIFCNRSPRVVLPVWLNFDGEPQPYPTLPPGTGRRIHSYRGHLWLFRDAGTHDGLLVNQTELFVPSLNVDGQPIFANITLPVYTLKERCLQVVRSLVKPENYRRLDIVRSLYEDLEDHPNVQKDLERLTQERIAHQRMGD
Chain of von Hippel-Lindau disease tumor suppressor/Mitogen-activated protein kinase 14 (Homo sapiens) (Q16539 2-360 limits assumed): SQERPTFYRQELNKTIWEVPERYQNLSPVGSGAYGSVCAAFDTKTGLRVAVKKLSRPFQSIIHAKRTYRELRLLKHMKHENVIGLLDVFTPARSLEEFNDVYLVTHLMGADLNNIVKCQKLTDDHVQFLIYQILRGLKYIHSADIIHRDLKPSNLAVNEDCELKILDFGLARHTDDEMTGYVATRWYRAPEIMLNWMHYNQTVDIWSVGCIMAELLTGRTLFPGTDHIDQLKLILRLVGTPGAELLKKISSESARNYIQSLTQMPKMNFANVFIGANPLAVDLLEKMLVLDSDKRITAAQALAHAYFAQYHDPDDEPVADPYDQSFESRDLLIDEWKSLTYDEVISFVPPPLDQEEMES

Chain of von Hippel-Lindau disease tumor suppressor/Mitogen-activated protein kinase 14 (Q16539 whole entry): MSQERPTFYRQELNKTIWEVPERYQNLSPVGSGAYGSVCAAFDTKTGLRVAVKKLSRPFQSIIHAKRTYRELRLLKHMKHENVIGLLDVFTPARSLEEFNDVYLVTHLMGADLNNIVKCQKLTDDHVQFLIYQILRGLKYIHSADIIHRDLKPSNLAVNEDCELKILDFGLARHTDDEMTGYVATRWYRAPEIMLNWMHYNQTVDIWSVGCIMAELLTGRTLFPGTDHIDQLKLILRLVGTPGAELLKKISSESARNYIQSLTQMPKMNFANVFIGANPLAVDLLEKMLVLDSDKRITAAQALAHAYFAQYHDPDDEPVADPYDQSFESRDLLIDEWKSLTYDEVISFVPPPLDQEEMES
Chain of von Hippel-Lindau disease tumor suppressor/Mitogen-activated protein kinase 14 (P40337 whole entry): as the sequence (P40337 whole entry partner) above

| SMILES | IC50 [1] [nM] | Emax [2] [%] |
| --- | --- | --- |
| COc1cc2c(Oc3ccc(NC(=O)C4(C(=O)Nc5ccc(F)cc5)CC4)cc3F)ccnc2cc1OCCCOCCOCCC(=O)N[C@H](C(=O)N1C[C@H](O)C[C@H]1C(=O)NCc1ccc(-c2scnc2C)cc1)C(C)(C)C | 18.8 | 91 |
| COc1cc2c(Oc3ccc(NC(=O)C4(C(=O)Nc5ccc(F)cc5)CC4)cc3F)ccnc2cc1OCCCOCCCOCCC(=O)N[C@H](C(=O)N1C[C@H](O)C[C@H]1C(=O)NCc1ccc(-c2scnc2C)cc1)C(C)(C)C | 50 | 95 |
| COc1cc2c(Oc3ccc(NC(=O)C4(C(=O)Nc5ccc(F)cc5)CC4)cc3F)ccnc2cc1OCCOCCOCCC(=O)N[C@H](C(=O)N1C[C@H](O)C[C@H]1C(=O)NCc1ccc(-c2scnc2C)cc1)C(C)(C)C | 40.1 | 81 |
